From PMC4051630, “A Comparison of Protein Kinases Inhibitor Screening Methods Using Both Enzymatic Activity and Binding Affinity Determination” (PLoS ONE, 2014)
Like-named read-outs stand apart in the source and are kept apart here.

Assays:
Assay in all cases: Differential Scanning Fluorimetry (DSF) Tm shift
Assay type in all cases: binding
[1] = molecular target: T1, STK3 Catalytic domain+SARAH (Homo sapiens, UniProt Q13188); details: 2 µM protein, 10 µM inhibitor, average of 3 experiments, each in duplicate
T1 construct: for 8, we also made a longer version containing one or more additional domains; His-tag; made in house; host or cells: Escherichia coli
T1 sequence (Q13188 1-491): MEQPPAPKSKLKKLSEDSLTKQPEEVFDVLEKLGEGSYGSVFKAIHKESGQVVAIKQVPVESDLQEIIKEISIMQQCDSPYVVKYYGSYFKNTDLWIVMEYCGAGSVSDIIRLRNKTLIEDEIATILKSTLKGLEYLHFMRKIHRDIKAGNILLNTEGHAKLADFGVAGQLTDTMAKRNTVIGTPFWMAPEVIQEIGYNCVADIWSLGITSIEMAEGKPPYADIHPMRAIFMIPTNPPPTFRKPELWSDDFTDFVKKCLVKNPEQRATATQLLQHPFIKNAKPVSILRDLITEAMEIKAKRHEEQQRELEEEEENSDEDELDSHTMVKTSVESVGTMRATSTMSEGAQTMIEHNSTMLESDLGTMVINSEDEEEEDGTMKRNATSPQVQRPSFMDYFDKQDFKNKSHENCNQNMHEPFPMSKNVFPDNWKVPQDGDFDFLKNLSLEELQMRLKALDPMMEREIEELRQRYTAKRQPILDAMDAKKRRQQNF

[2] = molecular target: SRC Catalytic Domain+SH2+SH3 (Homo sapiens, UniProt P12931); details: 2 µM protein, 10 µM inhibitor, average of 3 experiments, each in duplicate
[3] = molecular target: T2, CDK2 + Cyclin E (Homo sapiens, UniProt P24941)
T2 construct: CDK2 (P24941); 1–299; His-tag; made in house; host or cells: Escherichia coli

[4] = molecular target: T3, PAK4 Catalytic Domain (Homo sapiens, UniProt O96013); details: 2 µM protein, 10 µM inhibitor, average of 3 experiments, each in duplicate
T3 construct: For all of them, we expressed and purified the catalytic domain separately; His-tag; made in house; host or cells: Escherichia coli

[5] = molecular target: SRC Catalytic Domain (Homo sapiens, UniProt P12931); set-up: For all of them, we expressed and purified the catalytic domain separately; His-tag; made in house; host or cells: Escherichia coli; details: 2 µM protein, 10 µM inhibitor, average of 3 experiments, each in duplicate
[6] = molecular target: T4, FAK2 Catalytic Domain (Homo sapiens, UniProt Q14289); details: 2 µM protein, 10 µM inhibitor, average of 3 experiments, each in duplicate
T4 construct: For all of them, we expressed and purified the catalytic domain separately; His-tag; made in house; host or cells: Escherichia coli

[7] = molecular target: T5, CDK2 + Cyclin A (Homo sapiens, UniProt P24941)
T5 construct: CDK2 (P24941); 1–299; His-tag; made in house; host or cells: Escherichia coli

[8] = molecular target: T6, CHK2 Catalytic Domain (Homo sapiens, UniProt O96017); details: 2 µM protein, 10 µM inhibitor, average of 3 experiments, each in duplicate
T6 construct: For all of them, we expressed and purified the catalytic domain separately; His-tag; made in house; host or cells: Escherichia coli

[9] = molecular target: T7, DMPK Catalytic Domain (Homo sapiens, UniProt Q09013); details: 2 µM protein, 10 µM inhibitor, average of 3 experiments, each in duplicate
T7 construct: For all of them, we expressed and purified the catalytic domain separately; His-tag; made in house; host or cells: Escherichia coli
T7 sequence (Q09013 71-339 limits assumed): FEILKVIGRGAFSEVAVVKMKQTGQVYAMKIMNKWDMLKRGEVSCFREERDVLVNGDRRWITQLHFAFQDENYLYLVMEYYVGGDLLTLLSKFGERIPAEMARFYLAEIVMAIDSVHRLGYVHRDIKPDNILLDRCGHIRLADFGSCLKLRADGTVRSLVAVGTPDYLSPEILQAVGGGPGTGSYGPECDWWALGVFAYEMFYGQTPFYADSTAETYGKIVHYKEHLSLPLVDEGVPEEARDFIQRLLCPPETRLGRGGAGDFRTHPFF

[10] = molecular target: T8, FES Catalytic Domain+SH2 (Homo sapiens, UniProt P07332); details: 2 µM protein, 10 µM inhibitor, average of 3 experiments, each in duplicate
T8 construct: for 8, we also made a longer version containing one or more additional domains; His-tag; made in house; host or cells: Escherichia coli

[11] = molecular target: T9, PAK4 Catalytic Domain+PBD (Homo sapiens, UniProt O96013); details: 2 µM protein, 10 µM inhibitor, average of 3 experiments, each in duplicate
T9 construct: for 8, we also made a longer version containing one or more additional domains; His-tag; made in house; host or cells: Escherichia coli

[12] = molecular target: T10, PAK7 Catalytic Domain (Homo sapiens, UniProt Q9P286); details: 2 µM protein, 10 µM inhibitor, average of 3 experiments, each in duplicate
T10 construct: For all of them, we expressed and purified the catalytic domain separately; His-tag; made in house; host or cells: Escherichia coli

[13] = molecular target: T11, FES Catalytic Domain (Homo sapiens, UniProt P07332); details: 2 µM protein, 10 µM inhibitor, average of 3 experiments, each in duplicate
T11 construct: For all of them, we expressed and purified the catalytic domain separately; His-tag; made in house; host or cells: Escherichia coli

[14] = molecular target: T12, AKT3 Catalytic Domain (Homo sapiens, UniProt Q9Y243); details: 2 µM protein, 10 µM inhibitor, average of 3 experiments, each in duplicate
T12 construct: AKT3 (Q9Y243); CD; His-tag; made in house; host or cells: Escherichia coli

[15] = molecular target: T13, STK3 Catalytic Domain (Homo sapiens, UniProt Q13188); details: 2 µM protein, 10 µM inhibitor, average of 3 experiments, each in duplicate
T13 construct: For all of them, we expressed and purified the catalytic domain separately; His-tag; made in house; host or cells: Escherichia coli
T13 sequence (Q13188 27-278 limits assumed): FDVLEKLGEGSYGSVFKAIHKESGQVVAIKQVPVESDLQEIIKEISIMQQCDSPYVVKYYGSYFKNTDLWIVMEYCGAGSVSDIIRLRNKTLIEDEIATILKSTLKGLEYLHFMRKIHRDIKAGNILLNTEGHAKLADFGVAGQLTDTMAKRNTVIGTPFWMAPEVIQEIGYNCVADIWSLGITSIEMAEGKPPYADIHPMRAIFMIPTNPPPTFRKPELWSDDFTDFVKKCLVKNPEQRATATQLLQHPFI

[16] = CDK2 + Cyclin E, 2 µM protein, 10 µM inhibitor, average of 3 experiments, each in duplicate
[17] = CDK2 + Cyclin A, 2 µM protein, 10 µM inhibitor, average of 3 experiments, each in duplicate

T12 sequence (Q9Y243 122-479): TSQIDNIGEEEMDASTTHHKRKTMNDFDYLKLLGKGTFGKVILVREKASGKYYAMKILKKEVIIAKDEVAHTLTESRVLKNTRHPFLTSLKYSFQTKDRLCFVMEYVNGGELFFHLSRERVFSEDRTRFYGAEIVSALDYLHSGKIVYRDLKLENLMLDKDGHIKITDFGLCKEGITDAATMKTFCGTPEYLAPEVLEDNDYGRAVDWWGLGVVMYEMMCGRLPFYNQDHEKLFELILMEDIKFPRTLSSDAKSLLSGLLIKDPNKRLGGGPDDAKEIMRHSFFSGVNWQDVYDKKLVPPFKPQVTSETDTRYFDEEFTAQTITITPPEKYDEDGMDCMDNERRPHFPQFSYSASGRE
T9 sequence (O96013 whole entry, the tested form may be a part): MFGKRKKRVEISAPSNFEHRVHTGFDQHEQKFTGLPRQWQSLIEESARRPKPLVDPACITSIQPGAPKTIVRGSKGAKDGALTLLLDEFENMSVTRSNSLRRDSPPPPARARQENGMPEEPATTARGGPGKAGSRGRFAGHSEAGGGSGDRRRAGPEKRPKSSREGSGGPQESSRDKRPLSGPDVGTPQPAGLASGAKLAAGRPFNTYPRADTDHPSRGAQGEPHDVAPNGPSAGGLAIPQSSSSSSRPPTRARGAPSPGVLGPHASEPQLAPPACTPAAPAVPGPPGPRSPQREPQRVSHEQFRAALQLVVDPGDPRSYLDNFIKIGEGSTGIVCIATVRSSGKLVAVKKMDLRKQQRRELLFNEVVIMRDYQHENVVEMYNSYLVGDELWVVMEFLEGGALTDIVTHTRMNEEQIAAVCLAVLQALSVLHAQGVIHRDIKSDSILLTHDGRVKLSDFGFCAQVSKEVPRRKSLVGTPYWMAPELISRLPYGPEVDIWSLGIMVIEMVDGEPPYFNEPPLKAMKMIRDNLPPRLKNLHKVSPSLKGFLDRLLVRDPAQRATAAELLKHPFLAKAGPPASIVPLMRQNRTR
T6 sequence (O96017 220-486 limits assumed): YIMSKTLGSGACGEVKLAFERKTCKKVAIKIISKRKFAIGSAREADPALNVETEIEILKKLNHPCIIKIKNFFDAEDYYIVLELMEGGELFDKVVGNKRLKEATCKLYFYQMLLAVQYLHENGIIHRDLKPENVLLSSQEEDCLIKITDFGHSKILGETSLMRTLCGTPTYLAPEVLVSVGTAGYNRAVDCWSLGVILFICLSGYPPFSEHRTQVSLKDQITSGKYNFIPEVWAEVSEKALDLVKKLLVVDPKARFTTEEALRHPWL
Chain of SRC Catalytic Domain (P12931 270-523 limits assumed): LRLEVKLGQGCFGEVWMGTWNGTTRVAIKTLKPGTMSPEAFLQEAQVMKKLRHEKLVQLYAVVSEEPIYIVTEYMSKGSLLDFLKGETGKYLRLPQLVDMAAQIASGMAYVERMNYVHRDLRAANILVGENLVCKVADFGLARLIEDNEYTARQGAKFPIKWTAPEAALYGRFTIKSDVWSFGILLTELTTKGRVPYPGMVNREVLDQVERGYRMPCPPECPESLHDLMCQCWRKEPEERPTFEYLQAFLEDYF
Chain of SRC Catalytic Domain+SH2+SH3 (P12931 84-523 limits assumed): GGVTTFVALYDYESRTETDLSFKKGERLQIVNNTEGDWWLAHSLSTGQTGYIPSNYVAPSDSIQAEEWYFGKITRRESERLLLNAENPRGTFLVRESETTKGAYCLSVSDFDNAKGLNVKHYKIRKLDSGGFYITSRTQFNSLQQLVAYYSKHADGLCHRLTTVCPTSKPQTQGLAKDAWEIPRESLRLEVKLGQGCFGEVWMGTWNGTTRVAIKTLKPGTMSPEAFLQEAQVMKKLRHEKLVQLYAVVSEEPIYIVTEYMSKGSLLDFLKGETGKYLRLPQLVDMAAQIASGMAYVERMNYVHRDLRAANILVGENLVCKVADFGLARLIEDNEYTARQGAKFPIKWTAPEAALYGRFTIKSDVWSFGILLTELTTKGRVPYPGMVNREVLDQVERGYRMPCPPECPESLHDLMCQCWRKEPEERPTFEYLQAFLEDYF
T3 sequence (O96013 321-572 limits assumed): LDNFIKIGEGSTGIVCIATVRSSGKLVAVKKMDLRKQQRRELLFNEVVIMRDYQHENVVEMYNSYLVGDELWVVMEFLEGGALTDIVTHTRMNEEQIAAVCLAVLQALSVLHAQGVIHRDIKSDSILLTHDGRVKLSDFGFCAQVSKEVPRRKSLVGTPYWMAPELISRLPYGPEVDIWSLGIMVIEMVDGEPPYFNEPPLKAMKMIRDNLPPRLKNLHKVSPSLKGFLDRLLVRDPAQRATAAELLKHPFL
T4 sequence (Q14289 425-683 limits assumed): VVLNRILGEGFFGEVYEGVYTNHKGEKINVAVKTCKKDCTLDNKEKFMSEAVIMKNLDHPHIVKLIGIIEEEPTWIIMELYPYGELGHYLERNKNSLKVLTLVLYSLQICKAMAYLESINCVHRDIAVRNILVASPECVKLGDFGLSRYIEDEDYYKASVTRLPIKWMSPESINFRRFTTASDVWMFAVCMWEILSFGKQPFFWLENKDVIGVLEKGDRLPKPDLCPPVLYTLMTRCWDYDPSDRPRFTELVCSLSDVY
T8 sequence (P07332 448-822 limits assumed): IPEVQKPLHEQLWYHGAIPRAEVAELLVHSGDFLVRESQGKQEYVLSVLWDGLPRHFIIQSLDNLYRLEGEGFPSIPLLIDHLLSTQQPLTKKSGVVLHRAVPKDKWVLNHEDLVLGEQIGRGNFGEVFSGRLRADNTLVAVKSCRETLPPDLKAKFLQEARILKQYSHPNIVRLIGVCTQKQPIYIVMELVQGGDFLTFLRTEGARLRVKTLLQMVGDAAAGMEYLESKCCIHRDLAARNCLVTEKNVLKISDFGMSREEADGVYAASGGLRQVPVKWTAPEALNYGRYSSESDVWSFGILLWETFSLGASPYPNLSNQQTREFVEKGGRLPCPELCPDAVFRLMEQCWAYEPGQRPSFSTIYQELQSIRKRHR
T11 sequence (P07332 561-822 limits assumed): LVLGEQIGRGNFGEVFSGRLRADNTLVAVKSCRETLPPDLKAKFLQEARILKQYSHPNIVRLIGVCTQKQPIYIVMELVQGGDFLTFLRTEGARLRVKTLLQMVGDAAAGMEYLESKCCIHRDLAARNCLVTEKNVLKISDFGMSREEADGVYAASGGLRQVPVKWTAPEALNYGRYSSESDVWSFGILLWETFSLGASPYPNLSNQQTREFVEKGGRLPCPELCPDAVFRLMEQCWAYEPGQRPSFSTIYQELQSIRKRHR
T10 sequence (Q9P286 449-700 limits assumed): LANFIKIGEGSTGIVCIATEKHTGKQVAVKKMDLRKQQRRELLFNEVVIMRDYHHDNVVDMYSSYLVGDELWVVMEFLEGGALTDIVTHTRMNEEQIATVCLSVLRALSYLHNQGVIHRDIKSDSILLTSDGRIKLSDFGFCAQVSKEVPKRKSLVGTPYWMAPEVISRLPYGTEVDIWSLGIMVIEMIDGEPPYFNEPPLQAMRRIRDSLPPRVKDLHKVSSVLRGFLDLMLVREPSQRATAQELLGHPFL

Row | Structure (SMILES) | Melting temperature (Tm) shift [1] [degrees Celcius] | Melting temperature (Tm) shift [2] [degrees Celcius] | Melting temperature (Tm) shift [3, 16] [degrees Celcius] | Melting temperature (Tm) shift [4] [degrees Celcius] | Melting temperature (Tm) shift [5] [degrees Celcius] | Melting temperature (Tm) shift [6] [degrees Celcius] | Melting temperature (Tm) shift [7, 17] [degrees Celcius] | Melting temperature (Tm) shift [8] [degrees Celcius] | Melting temperature (Tm) shift [9] [degrees Celcius] | Melting temperature (Tm) shift [10] [degrees Celcius] | Melting temperature (Tm) shift [11] [degrees Celcius] | Melting temperature (Tm) shift [12] [degrees Celcius] | Melting temperature (Tm) shift [13] [degrees Celcius] | Melting temperature (Tm) shift [14] [degrees Celcius] | Melting temperature (Tm) shift [15] [degrees Celcius] | Melting temperature (Tm) shift [3] | Melting temperature (Tm) shift [7]
1 | NC(=O)Nc1cc(-c2ccccc2)sc1C(N)=O [IKK-2 Inhibitor XI] | 1.4 | 1.0 | 0.7 | 1.7 | 1.5 | 1.5 | 0.9 | 5.8 | 1.6 | 1.1 | 2.9 | 1.3 | 2.1 | 0.0 | 2.4 |  | 
2 | CN(C)CCCn1cc(C2=C(c3c[nH]c4ccccc34)C(=O)NC2=O)c2ccccc21 [Bisindolylmaleimide I] | 2.9 | 0.0 | 0.9 | 1.0 | 0.4 | 0.5 | 1.8 | 4.6 | 3.9 | 0.6 | 0.6 | 0.6 | 0.6 | 0.4 | 1.0 |  | 
3 | NC(=O)Nc1sc(-c2ccccc2)cc1C(N)=O [IKK-2 Inhibitor VI] | 2.0 | 1.1 | 0.2 | 1.3 | 1.3 | 1.4 | 0.8 | 3.6 | 1.4 | 0.7 | 2.5 | 1.3 | 1.8 | 0.0 | 2.4 |  | 
4 | Cl.Cl.NCCNc1ncc(C(N)=O)c(Nc2cccc(C(F)(F)F)c2)n1 [Syk Inhibitor II] | 1.3 | 0.4 | 0.6 | 4.7 | 0.1 | 1.9 | 0.5 | 4.7 | 0.7 | 1.3 | 4.8 | 5.1 | 3.1 | 0.0 | 1.6 |  | 
5 | Nc1cccc(-c2cc3c(Oc4cccc(O)c4)ncnc3[nH]2)c1 [GSK3b Inhibitor XII, TWS119] | 0.5 | 3.1 | 0.2 | 1.3 | 2.6 | 1.5 | 0.7 | 2.1 | 1.2 | 2.0 | 1.5 | 1.1 | 4.1 | 0.1 | 0.3 |  | 
6 | N#Cc1cnc2cnc(NCc3cccnc3)cc2c1Nc1ccc(F)c(Cl)c1 [Tpl2 Kinase Inhibitor] | 0.4 | 0.1 | 0.5 | 0.5 | 0.2 | 0.5 | 0.2 | 0.3 | 1.4 | 0.2 | 0.6 | 0.1 | 0.0 | 0.1 | 0.2 |  | 
7 | Cc1[nH]c(/C=C2\C(=O)Nc3ccc(S(=O)(=O)N(C)c4cccc(Cl)c4)cc32)c(C)c1C(=O)N1CCN(C)CC1 [Met Kinase Inhibitor] | 0.9 | 0.2 |  | 0.9 | 0.3 | 0.1 |  | 1.2 | 1.2 | 0.1 | 0.3 | 0.2 | 0.6 | 0.0 | 0.7 | 0.1 | 0.4
